{
  "source": "patent US11969428B2",
  "about": "“Methods and pharmaceutical compositions for treating lymphoid malignancy” (priority 2011, dated 2024)",
  "test_in_all_cases": "Ambit KinomeScan screening",
  "assay_type_in_all_cases": "binding",
  "conditions_in_all_cases": "CAL-130 10 μM",
  "key": {"[1]": {"target": "T1, AAK1 (Homo sapiens, UniProt Q2M2I8)", "T1 construct": "unspecified tag (\"tagged kinases\"); purchased Ambit (KinomeScan screening)", "in_short": "(§1)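 In this 353-kinase competition screen, the compound (CAL-130, 10 μM) competed with an immobilized ligand for each tagged kinase. Percentages of control binding above 35% were treated as no hits.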"}, "[2]": {"target": "T2, ABL1(T315I) (Homo sapiens, UniProt P00519, T315I)", "T2 construct": "unspecified tag (\"tagged kinases\"); purchased Ambit (KinomeScan screening)", "in_short": "as §1"}, "[3]": {"target": "T3, ABL1(Y253F) (Homo sapiens, UniProt P00519, Y253F)", "T3 construct": "unspecified tag (\"tagged kinases\"); purchased Ambit (KinomeScan screening)", "in_short": "as §1"}, "[4]": {"target": "T4, ADCK3 (Homo sapiens, UniProt Q8NI60)", "T4 construct": "purchased Ambit (KinomeScan screening)", "T4 sequence (Q8NI60 163-647)": "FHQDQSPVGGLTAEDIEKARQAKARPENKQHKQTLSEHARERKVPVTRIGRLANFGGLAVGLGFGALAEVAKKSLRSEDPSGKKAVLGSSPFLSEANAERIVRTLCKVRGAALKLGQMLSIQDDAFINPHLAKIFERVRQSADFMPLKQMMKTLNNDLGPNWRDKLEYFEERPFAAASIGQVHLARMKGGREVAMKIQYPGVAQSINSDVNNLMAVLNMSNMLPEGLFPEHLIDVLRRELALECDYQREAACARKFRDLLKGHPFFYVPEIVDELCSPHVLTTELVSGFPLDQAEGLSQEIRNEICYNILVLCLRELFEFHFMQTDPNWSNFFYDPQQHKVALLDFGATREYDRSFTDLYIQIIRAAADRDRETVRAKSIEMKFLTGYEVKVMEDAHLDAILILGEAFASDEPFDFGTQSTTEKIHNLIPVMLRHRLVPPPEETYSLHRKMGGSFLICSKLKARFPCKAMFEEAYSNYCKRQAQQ", "in_short": "as §1"}, "[5]": {"target": "T5, AKT3 (Homo sapiens, UniProt Q9Y243)", "T5 construct": "purchased Ambit (KinomeScan screening)", "in_short": "as §1"}, "[6]": {"target": "T6, CDK2 (Homo sapiens, UniProt P24941)", "T6 construct": "purchased Ambit (KinomeScan screening)", "in_short": "as §1"}, "[7]": {"target": "T7, CHEK1 (Homo sapiens, UniProt O14757)", "T7 construct": "purchased Ambit (KinomeScan screening service)", "in_short": "as §1"}, "[8]": {"target": "T8, CSNK1A1L (Homo sapiens, UniProt Q8N752)", "T8 construct": "purchased Ambit (KinomeScan screening service)", "in_short": "as §1"}, "[9]": {"target": "T9, CTK (Homo sapiens, UniProt P42679)", "T9 construct": "purchased Ambit (KinomeScan screening service)", "in_short": "as §1"}, "[10]": {"target": "T10, DDR2 (Homo sapiens, UniProt Q16832)", "T10 construct": "unspecified tag (\"tagged kinases\"); purchased Ambit (KinomeScan screening service)", "in_short": "as §1"}, "[11]": {"target": "T11, DLK (Homo sapiens, UniProt Q12852)", "T11 construct": "unspecified tag (\"tagged kinases\"); purchased Ambit (KinomeScan screening service)", "in_short": "as §1"}, "[12]": {"target": "T12, EGFR(G719S) (Homo sapiens, UniProt P00533, G719S)", "T12 construct": "unspecified tag; purchased Ambit (KinomeScan screening service)", "in_short": "as §1"}, "[13]": {"target": "T13, EPHA1 (Homo sapiens, UniProt P21709)", "T13 construct": "purchased Ambit (KinomeScan screening service)", "in_short": "as §1"}, "[14]": {"target": "T14, EPHB4 (Homo sapiens, UniProt P54760)", "T14 construct": "purchased Ambit (KinomeScan screening service)", "in_short": "as §1"}, "[15]": {"tested_on": "FLT3(ITD)", "in_short": "as §1"}, "[16]": {"target": "T15, GCN2(S808G) (Homo sapiens, UniProt Q9P2K8, S808G)", "T15 construct": "unspecified tag ('tagged kinases'); purchased Ambit (KinomeScan screening service)", "in_short": "as §1"}, "[17]": {"target": "T16, HIPK3 (Homo sapiens, UniProt Q9H422)", "T16 construct": "Ambit (KinomeScan screening)", "in_short": "as §1"}, "[18]": {"target": "T17, KIT (Homo sapiens, UniProt P10721)", "T17 construct": "purchased Ambit (KinomeScan screening)", "T17 sequence (P10721 26-976)": "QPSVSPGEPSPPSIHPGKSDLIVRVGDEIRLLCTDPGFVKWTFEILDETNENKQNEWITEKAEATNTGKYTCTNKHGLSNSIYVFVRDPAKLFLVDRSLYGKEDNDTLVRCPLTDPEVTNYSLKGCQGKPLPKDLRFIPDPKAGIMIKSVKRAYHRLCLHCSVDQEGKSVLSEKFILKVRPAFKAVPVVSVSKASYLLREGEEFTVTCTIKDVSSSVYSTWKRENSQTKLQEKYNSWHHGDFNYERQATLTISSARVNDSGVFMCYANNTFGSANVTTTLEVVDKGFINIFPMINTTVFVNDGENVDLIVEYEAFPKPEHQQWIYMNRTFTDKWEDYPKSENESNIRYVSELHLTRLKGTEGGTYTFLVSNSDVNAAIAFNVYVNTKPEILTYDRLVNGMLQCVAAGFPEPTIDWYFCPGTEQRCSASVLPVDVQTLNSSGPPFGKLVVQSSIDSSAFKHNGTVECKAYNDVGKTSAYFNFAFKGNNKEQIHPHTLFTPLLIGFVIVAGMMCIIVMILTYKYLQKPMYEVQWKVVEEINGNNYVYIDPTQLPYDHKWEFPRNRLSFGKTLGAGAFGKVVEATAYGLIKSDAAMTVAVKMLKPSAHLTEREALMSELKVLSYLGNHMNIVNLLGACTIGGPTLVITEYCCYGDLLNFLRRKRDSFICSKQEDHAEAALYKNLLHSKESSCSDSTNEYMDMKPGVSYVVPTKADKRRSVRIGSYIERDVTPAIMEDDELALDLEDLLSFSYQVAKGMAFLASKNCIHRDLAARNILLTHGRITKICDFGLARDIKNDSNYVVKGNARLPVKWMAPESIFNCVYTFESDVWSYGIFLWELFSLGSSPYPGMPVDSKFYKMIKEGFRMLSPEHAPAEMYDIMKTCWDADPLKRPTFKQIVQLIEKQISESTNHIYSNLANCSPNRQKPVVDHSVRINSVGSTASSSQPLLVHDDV", "in_short": "as §1"}, "[19]": {"target": "T18, KIT(L576P) (Homo sapiens, UniProt P10721, L576P)", "T18 construct": "purchased Ambit (KinomeScan screening)", "in_short": "as §1"}, "[20]": {"target": "T19, LTK (Homo sapiens, UniProt P29376)", "T19 construct": "unspecified tag ('tagged kinases'); purchased Ambit (KinomeScan screening service)", "in_short": "as §1"}, "[21]": {"target": "T20, MAK (Homo sapiens, UniProt P20794)", "T20 construct": "unspecified tag ('tagged kinases'); purchased Ambit (KinomeScan screening service)", "T20 sequence (P20794 whole entry)": "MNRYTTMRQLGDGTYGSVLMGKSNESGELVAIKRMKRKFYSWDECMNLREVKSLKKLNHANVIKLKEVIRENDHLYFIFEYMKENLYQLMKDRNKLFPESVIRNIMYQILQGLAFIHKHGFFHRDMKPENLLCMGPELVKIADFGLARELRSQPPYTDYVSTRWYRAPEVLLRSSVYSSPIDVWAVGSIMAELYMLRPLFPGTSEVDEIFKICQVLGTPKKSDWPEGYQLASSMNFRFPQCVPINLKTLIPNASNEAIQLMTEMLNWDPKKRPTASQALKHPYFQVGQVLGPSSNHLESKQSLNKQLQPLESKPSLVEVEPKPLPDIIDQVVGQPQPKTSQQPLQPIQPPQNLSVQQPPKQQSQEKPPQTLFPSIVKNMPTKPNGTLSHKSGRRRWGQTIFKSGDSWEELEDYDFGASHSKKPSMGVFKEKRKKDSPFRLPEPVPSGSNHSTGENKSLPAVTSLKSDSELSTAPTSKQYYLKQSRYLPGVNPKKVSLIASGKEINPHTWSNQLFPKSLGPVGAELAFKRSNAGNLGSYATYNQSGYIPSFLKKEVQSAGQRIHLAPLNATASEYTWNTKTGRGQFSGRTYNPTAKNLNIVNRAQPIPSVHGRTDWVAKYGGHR", "in_short": "as §1"}, "[22]": {"target": "T21, MAP4K2 (Homo sapiens, UniProt Q12851)", "T21 construct": "Ambit (KinomeScan screening)", "in_short": "as §1"}, "[23]": {"target": "T22, MELK (Homo sapiens, UniProt Q14680)", "T22 construct": "purchased Ambit (KinomeScan screening)", "in_short": "as §1"}, "[24]": {"target": "T23, MRCKB (Homo sapiens, UniProt Q9Y5S2)", "T23 construct": "unspecified tag ('tagged kinases'); purchased Ambit (KinomeScan screening)", "in_short": "as §1"}, "[25]": {"target": "T24, PAK3 (Homo sapiens, UniProt O75914)", "T24 construct": "purchased Ambit (KinomeScan screening service)", "T24 sequence (O75914 whole entry)": "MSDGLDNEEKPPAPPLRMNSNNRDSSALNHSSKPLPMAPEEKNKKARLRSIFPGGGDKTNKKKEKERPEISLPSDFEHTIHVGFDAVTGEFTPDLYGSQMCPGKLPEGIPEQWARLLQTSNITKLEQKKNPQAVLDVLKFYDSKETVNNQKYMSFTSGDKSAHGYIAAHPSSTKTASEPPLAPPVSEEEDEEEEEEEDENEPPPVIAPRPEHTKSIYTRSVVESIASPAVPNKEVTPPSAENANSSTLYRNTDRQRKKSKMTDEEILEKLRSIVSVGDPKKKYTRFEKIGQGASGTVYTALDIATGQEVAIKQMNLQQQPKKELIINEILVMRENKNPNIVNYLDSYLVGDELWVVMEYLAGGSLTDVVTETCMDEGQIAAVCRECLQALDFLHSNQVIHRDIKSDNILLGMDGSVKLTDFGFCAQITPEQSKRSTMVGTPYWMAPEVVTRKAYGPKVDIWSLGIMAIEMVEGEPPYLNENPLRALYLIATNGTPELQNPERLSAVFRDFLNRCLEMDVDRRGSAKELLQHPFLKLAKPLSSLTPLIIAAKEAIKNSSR", "in_short": "as §1"}, "[26]": {"target": "T25, PHKG2 (Homo sapiens, UniProt P15735)", "T25 construct": "unspecified tag ('tagged kinases'); purchased Ambit (KinomeScan screening)", "in_short": "as §1"}, "[27]": {"target": "T26, PIK3CB (Homo sapiens, UniProt P42338)", "T26 construct": "unspecified tag; purchased Ambit (KinomeScan screening panel)", "T26 sequence (P42338 whole entry)": "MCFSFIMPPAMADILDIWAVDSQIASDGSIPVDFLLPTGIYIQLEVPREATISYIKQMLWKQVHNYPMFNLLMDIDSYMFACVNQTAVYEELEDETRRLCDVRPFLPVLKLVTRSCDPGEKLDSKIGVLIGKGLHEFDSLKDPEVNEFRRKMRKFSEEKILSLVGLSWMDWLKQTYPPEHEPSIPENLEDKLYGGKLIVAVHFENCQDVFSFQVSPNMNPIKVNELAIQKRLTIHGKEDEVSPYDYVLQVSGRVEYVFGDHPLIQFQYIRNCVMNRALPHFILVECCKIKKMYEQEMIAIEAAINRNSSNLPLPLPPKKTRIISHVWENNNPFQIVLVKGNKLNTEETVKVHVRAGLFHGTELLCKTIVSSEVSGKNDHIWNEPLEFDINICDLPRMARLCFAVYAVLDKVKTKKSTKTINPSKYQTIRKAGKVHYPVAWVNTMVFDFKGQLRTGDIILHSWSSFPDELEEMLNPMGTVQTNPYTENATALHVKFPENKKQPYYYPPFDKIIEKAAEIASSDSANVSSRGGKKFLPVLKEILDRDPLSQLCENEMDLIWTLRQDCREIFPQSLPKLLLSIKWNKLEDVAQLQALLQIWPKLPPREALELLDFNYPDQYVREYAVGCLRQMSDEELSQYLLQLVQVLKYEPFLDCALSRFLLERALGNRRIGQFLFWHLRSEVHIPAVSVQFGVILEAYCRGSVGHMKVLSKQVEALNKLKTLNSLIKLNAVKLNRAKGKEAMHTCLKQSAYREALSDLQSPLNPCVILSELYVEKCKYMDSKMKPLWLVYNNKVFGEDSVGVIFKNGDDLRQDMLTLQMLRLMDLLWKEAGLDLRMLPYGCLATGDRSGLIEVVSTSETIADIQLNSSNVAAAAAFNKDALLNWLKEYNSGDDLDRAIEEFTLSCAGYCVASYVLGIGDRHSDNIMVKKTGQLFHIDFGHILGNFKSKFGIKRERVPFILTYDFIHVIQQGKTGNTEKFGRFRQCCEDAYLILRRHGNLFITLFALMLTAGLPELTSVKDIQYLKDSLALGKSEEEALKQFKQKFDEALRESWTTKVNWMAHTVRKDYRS", "in_short": "as §1"}, "[28]": {"target": "T27, PRKX (Homo sapiens, UniProt P51817)", "T27 construct": "tag (kind not specified); purchased Ambit (KinomeScan screening service)", "in_short": "as §1"}, "[29]": {"target": "T28, RPS6KA1 (Homo sapiens, UniProt Q15418)", "T28 construct": "unspecified tag (tagged kinase); purchased Ambit (KinomeScan screening)", "in_short": "as §1"}, "[30]": {"target": "T29, SLK (Homo sapiens, UniProt Q9H2G2)", "T29 construct": "tag, kind not specified; purchased Ambit (KinomeScan screening service)", "in_short": "as §1"}, "[31]": {"target": "T30, STK33 (Homo sapiens, UniProt Q9BYT3)", "T30 construct": "purchased Ambit (KinomeScan screening service)", "in_short": "as §1"}, "[32]": {"target": "T31, TGFBR2 (Homo sapiens, UniProt P37173)", "T31 construct": "unspecified tag (tagged kinase); purchased Ambit (KinomeScan screening)", "T31 sequence (P37173 23-567)": "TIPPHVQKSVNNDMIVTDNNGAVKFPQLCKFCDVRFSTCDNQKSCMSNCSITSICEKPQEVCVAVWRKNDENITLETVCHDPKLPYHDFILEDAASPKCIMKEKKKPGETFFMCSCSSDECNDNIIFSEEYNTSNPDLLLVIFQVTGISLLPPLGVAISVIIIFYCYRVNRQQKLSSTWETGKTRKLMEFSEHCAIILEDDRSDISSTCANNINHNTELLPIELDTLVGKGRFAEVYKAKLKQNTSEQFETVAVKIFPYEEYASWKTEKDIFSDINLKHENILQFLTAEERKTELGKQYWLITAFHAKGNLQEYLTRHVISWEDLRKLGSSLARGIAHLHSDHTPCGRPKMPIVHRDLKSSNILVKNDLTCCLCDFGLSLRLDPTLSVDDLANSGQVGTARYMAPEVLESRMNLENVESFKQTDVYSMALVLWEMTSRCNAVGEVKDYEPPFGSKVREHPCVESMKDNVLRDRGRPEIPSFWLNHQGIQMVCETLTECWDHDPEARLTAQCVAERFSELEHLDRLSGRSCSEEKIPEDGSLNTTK", "in_short": "as §1"}, "[33]": {"target": "T32, TIE1 (Homo sapiens, UniProt P35590)", "T32 construct": "unspecified tag (tagged kinase); purchased Ambit (KinomeScan screening)", "in_short": "as §1"}, "[34]": {"target": "T33, TNNI3K (Homo sapiens, UniProt Q59H18)", "T33 construct": "unspecified tag (tagged kinase); purchased Ambit (KinomeScan screening)", "T33 sequence (Q59H18 whole entry)": "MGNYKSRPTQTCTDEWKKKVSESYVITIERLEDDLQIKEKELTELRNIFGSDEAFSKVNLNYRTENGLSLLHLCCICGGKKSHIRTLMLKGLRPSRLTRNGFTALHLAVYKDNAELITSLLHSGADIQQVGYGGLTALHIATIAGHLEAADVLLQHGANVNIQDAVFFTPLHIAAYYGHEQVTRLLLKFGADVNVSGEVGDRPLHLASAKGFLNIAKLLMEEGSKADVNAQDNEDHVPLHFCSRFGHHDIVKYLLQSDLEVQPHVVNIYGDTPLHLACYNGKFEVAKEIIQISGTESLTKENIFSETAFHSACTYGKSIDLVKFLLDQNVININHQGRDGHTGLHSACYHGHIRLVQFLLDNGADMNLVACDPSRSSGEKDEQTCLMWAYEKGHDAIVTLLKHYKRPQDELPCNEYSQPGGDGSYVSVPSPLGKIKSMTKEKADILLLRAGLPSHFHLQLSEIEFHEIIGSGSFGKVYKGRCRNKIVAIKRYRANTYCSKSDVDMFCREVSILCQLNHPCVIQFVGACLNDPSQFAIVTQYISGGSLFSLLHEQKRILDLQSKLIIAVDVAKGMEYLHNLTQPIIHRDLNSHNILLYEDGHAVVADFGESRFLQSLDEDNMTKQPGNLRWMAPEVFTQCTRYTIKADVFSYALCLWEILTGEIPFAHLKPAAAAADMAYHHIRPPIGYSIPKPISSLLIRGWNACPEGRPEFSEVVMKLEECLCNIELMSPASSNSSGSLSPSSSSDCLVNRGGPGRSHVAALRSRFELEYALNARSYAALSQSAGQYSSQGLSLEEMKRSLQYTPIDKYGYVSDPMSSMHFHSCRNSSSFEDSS", "in_short": "as §1"}, "[35]": {"target": "T34, TRKC (Homo sapiens, UniProt Q16288)", "T34 construct": "tag, kind not specified; purchased Ambit (KinomeScan screening service)", "in_short": "as §1"}, "[36]": {"target": "T35, YSK4 (Homo sapiens, UniProt Q56UN5)", "T35 construct": "purchased Ambit (KinomeScan screening service)", "in_short": "as §1"}},
  "data": [
    {"smiles": "Cc1ccccc1-n1c(C(C)Nc2nc(N)nc3nc[nH]c23)nc2cccc(C)c2c1=O", "note": "(stereo not shown) [CAL-130]", "values": [
      {"measurement": "Percent of Control Binding", "setting": "[1]", "value": 100, "unit": "%"},
      {"measurement": "Percent of Control Binding", "setting": "[2]", "value": 100, "unit": "%"},
      {"measurement": "Percent of Control Binding", "setting": "[3]", "value": 100, "unit": "%"},
      {"measurement": "Percent of Control Binding", "setting": "[4]", "value": 100, "unit": "%"},
      {"measurement": "Percent of Control Binding", "setting": "[5]", "value": 100, "unit": "%"},
      {"measurement": "Percent of Control Binding", "setting": "[6]", "value": 100, "unit": "%"},
      {"measurement": "Percent of Control Binding", "setting": "[7]", "value": 100, "unit": "%"},
      {"measurement": "Percent of Control Binding", "setting": "[8]", "value": 100, "unit": "%"},
      {"measurement": "Percent of Control Binding", "setting": "[9]", "value": 100, "unit": "%"},
      {"measurement": "Percent of Control Binding", "setting": "[10]", "value": 100, "unit": "%"},
      {"measurement": "Percent of Control Binding", "setting": "[11]", "value": 100, "unit": "%"},
      {"measurement": "Percent of Control Binding", "setting": "[12]", "value": 100, "unit": "%"},
      {"measurement": "Percent of Control Binding", "setting": "[13]", "value": 100, "unit": "%"},
      {"measurement": "Percent of Control Binding", "setting": "[14]", "value": 100, "unit": "%"},
      {"measurement": "Percent of Control Binding", "setting": "[15]", "value": 100, "unit": "%"},
      {"measurement": "Percent of Control Binding", "setting": "[16]", "value": 100, "unit": "%"},
      {"measurement": "Percent of Control Binding", "setting": "[17]", "value": 100, "unit": "%"},
      {"measurement": "Percent of Control Binding", "setting": "[18]", "value": 100, "unit": "%"},
      {"measurement": "Percent of Control Binding", "setting": "[19]", "value": 100, "unit": "%"},
      {"measurement": "Percent of Control Binding", "setting": "[20]", "value": 100, "unit": "%"},
      {"measurement": "Percent of Control Binding", "setting": "[21]", "value": 100, "unit": "%"},
      {"measurement": "Percent of Control Binding", "setting": "[22]", "value": 100, "unit": "%"},
      {"measurement": "Percent of Control Binding", "setting": "[23]", "value": 100, "unit": "%"},
      {"measurement": "Percent of Control Binding", "setting": "[24]", "value": 100, "unit": "%"},
      {"measurement": "Percent of Control Binding", "setting": "[25]", "value": 100, "unit": "%"},
      {"measurement": "Percent of Control Binding", "setting": "[26]", "value": 100, "unit": "%"},
      {"measurement": "Percent of Control Binding", "setting": "[27]; PI3KCB (Table 2)", "value": 10, "unit": "%"},
      {"measurement": "Percent of Control Binding", "setting": "[27]; PIK3CB (Table 1)", "value": 3.2, "unit": "%"},
      {"measurement": "Percent of Control Binding", "setting": "[28]", "value": 100, "unit": "%"},
      {"measurement": "Percent of Control Binding", "setting": "[29]", "value": 100, "unit": "%"},
      {"measurement": "Percent of Control Binding", "setting": "[30]", "value": 100, "unit": "%"},
      {"measurement": "Percent of Control Binding", "setting": "[31]", "value": 100, "unit": "%"},
      {"measurement": "Percent of Control Binding", "setting": "[32]", "value": 100, "unit": "%"},
      {"measurement": "Percent of Control Binding", "setting": "[33]", "value": 100, "unit": "%"},
      {"measurement": "Percent of Control Binding", "setting": "[34]", "value": 100, "unit": "%"},
      {"measurement": "Percent of Control Binding", "setting": "[35]", "value": 100, "unit": "%"},
      {"measurement": "Percent of Control Binding", "setting": "[36]", "value": 100, "unit": "%"}
    ]}
  ]
}
